Entries after “also recorded” stand apart in the source; their conditions may differ. Blank lines part the entries; values can stand above or below the substance they belong to.
Legend:
LDLRKO mice [1] = assay: Cholestyramine, atorvastatin and GH alone and in combination: plasma cholesterol and triglycerides; assay type: in vivo; settings: 6 days of treatment
C57BL/6J mice [2] = assay: GH infusion for six days: total plasma cholesterol, triglycerides and total hepatic cholesterol; assay type: in vivo; settings: GH 1 mg/kg/d infusion
From the text: (§1) The studies were approved by the Institutional Animal Care and Use Committee, Sweden. Altogether 75 male LDLRKO and 45 C57 BL/6J mice were purchased from Bommice, Denmark. Animals were housed under standardized conditions in groups of ten. The mice had free access to water and chow; the light cycle hours were between 6 a.m. and 6:00 p.m. At the start of the experiment, osmotic mini pumps containing GH were implanted subcutaneously under light ether anesthesia. Non-GH treated animals were sham-operated. Recombinant human GH (Genotropin®), purchased from Pharmacia & Upjohn, was infused at a rate of 1.0 mg/kg per day. After six days of infusion, animals where anesthetized with ether, and blood was collected from the eye. The mice where thereafter killed by cervical dislocation. The livers were immediately removed and when indicated, 1 g of liver was taken for subsequent preparation of microsomes for assay of enzyme activity as described below. The remaining liver was immediately frozen in liquid nitrogen and stored at −70° C.
(§2) The total hepatic cholesterol was determined, following extraction and subsequent drying under nitrogen from liver samples, as described (Rudling M. J. Lipid Res. 33: 493-50 1992). Total hepatic and plasma cholesterol and plasma triglycerides were assayed using commercial available methods (Boehringer-Mannheim, Mannheim, Germany).
(§3) Infusion of GH to C57BL/6J and LDLRKO mice. Two sets of ten animals of each strain were continuously infused at a rate of 1 mg/kg/d. After six days of treatment, animals were killed and plasma and livers were collected.
(§4) To confirm this surprising finding of a plasma cholesterol lowering effect of GH in LDLR deficient animals with pronounced hypercholesterolemia, the previous experiment was repeated. In addition, we wanted to also determine the enzymatic activities of 3-hydroxy-3-methyl-glutaryl coenzyme A, (HMG CoA) reductase, and cholesterol 7α hydroxylase, (C7αOH), being the rate limiting steps in the synthesis of cholesterol and bile acids, respectively. Animals received the same dose of GH that was infused for six days.
(§5) FIG. 1 is a graph that depicts total plasma cholesterol, triglycerides and total hepatic cholesterol in normal (C57 BL) and LDLRKO (KO) mice±GH (1 mg/kg/day) for 6 days. Each group consisted of 10 animals. Bars indicate SEM.
(§6) Each group consisted of 10 animals. Bars indicate SEM.

LDLRKO mice [3] = assay: as above; assay type: in vivo
From the text: as §1, §2, §3, §4, §5, §6

C57BL/6J mice [4] = assay: FPLC size-fractionation of plasma lipoproteins after GH infusion; assay type: in vivo; settings: pooled plasma, first experiment
Protocol: (§7) Equal volumes of plasma from each animal were pooled (1-2 mL) and the density was adjusted to 1.21 g/mL with solid KBr. After ultracentrifugation at 10^5 g for 48 h, the supernatant was removed and adjusted with 0.15 M NaCl, 0.01% etylene diamine tetraacetic acid, (EDTA), 0.02% sodium azide, pH 7.3. An aliquot of this solution was injected on a 54×1.8 cm superose 6B column after filtration through a Millipore […] HA filter, 2-mL fractions were collected.
(§8) FIGS. 2 and 3 show the lipoprotein patterns in the four groups of animals described in legend to FIG. 1. Equal volumes of plasma from each animal were pooled and subjected to ultracentrifugation at density 1.21. The supernatant was thereafter separated on a Superose 6 column and fractionated.

LDLRKO mice [5] = assay: as above; assay type: in vivo
Protocol: as §7, §8

LDL receptors = assay: Ligand blot assay of hepatic LDL-receptors after GH treatment; assay type: in vivo; settings: C57BL/6J mice, pooled livers
Protocol: Ligand blot assay of LDL-receptors was performed using ^125I-labeled rabbit β-migrating very low density lipoprotein (VLDL), as described previously (Rudling et al 1992. PNAS 89; 6983-6987). Membrane proteins were separated by SDS-PAGE (6% poly-acrylamide). After electrotransfer of proteins to nitrocellulose filters and subsequent incubation ^125I-β-VLDL filters were exposed onto DuPont X-ray film at −70° C.
The absence of LDL receptors in LDLRKO animals was confirmed by ligand blot of hepatic membranes obtained from pooled livers from each animal group, using β-VLDL as ligand (not shown). The expression of LDL receptors in C57BL/6J mice was not altered by GH treatment.

[6] = system: cholesterol 7α hydroxylase (C7αOH); assay: Enzymatic activity of C7αOH in hepatic microsomes after GH infusion; assay type: in vivo, mice; settings: for increase of C7αOH activity: GH 1 mg/kg/day, six days, hepatic microsomes
From the text: as §1
(§9) Hepatic microsomes were prepared by differential ultracentrifugation of liver homogenates in the absence of fluoride as previously described (Angelin et al 1984, J Lipid Res. 25; 1159-1166, Einarsson et al. 1986, J. Lipid Res. 27; 82-88, Einarsson et al. 1989, J. Lipid Res. 30; 739-746). Microsomal HMG CoA reductase was assayed from the conversion of [^14C] HMG CoA to mevalonate, and expressed as picomoles formed per mg protein per min. The activity of C7αOH was determined from the formation of 7α-hydroxycholesterol (picomoles/mg protein/min) from endogenous microsomal cholesterol by the use of isotope dilution-mass spectrometry as described in detail. All enzyme assays were carried out in duplicate.
(§10) The means and standard error of means from three separate pools of all animals are shown.

HMG CoA reductase = assay: Enzymatic activity of HMG CoA reductase in hepatic microsomes after GH infusion; assay type: in vivo, mice; settings: for increase of HMG CoA reductase activity: GH 1 mg/kg/day, six days, hepatic microsomes
From the text: as §1, §9, §10

C7αOH mRNA = C7αOH mRNA levels by solution hybridization after GH infusion; assay type: in vivo, mice; settings: GH treatment, liver
Protocol: (§11) Total nucleic acids were extracted from a sample of liver from each individual and incubated with the respective complementary radio-labeled cRNA probe.

HMG CoA reductase mRNA = HMG CoA reductase mRNA levels by solution hybridization after GH infusion; assay type: in vivo, mice; settings: liver
Protocol: as §11

[7] = LDLRKO mice, GH 1 mg/kg/d infusion, six days
[8] = repeated experiment, same GH dose, six days (FIG. 4)

Substance: cholestyramine [reference compound]
effect on plasma cholesterol (in words) (LDLRKO mice [1]; drug alone): no effects

expression of LDL receptors (ligand blot of hepatic membranes) (LDL receptors): not altered
increase of C7αOH activity ([6]; C57/BL6J mice): 115%
increase of C7αOH activity ([6]; LDLRKO mice): 46%
HMG CoA reductase mRNA levels (HMG CoA reductase mRNA; C57/BL6J mice): no effect
increase of HMG CoA reductase mRNA levels (HMG CoA reductase mRNA; LDLRKO mice): 20%
Substance: GH: Recombinant human GH (Genotropin), purchased from Pharmacia & Upjohn, infused at 1.0 mg/kg per day
total plasma cholesterol (C57BL/6J mice [2]; C57BL/6J (normal) mice): no significant effect; also recorded: no reduction
total plasma triglycerides (C57BL/6J mice [2]; C57BL/6J mice): unaltered
total hepatic cholesterol (C57BL/6J mice [2]; normal C57BL/6J mice): slightly increased
reduced plasma cholesterol level (LDLRKO mice [3]; LDL-receptor knockout mice, GH infusion): 30-40%
total hepatic cholesterol (LDLRKO mice [3]; [7]): slight reduction
total plasma triglycerides (LDLRKO mice [3]; [7]): slight but not significant reduction
total plasma cholesterol (LDLRKO mice [3]; LDLRKO mice, GH 1 mg/kg/d infusion, six days, first experiment): clearly reduced
reduction of total plasma cholesterol versus first experiment (LDLRKO mice [3]; [8]): slightly less pronounced
total plasma cholesterol and triglycerides, and total hepatic cholesterol versus first experiment (LDLRKO mice [3]; [8]): practically identical results
lipoprotein triglycerides by FPLC size fraction (C57BL/6J mice [4]): increased triglycerides within VLDL particles
reduction of lipoprotein cholesterol by FPLC size fraction (LDLRKO mice [5]; LDLRKO mice, pooled plasma, first experiment (FIG. 2)): within all size fractions
reduction in lipoprotein triglycerides by FPLC size fraction (LDLRKO mice [5]; LDLRKO mice, pooled plasma, first experiment (FIG. 3)): only within VLDL particles
plasma lipoprotein cholesterol by FPLC (LDLRKO mice [5]; repeated experiment (FIG. 5)): lowered plasma lipoprotein cholesterol, particularly within VLDL and LDL particles
lipoprotein triglycerides by FPLC (LDLRKO mice [5]; repeated experiment (FIG. 6)): not only reduced among VLDL particles but also within LDL and HDL particles
enzymatic activity of C7αOH (in words) ([6]; LDLRKO mice, GH infusion): stimulated; also recorded: normalized
enzymatic activity of C7αOH (in words) ([6]; normal mice, GH treatment): stimulated
increase of HMG CoA reductase activity (HMG CoA reductase; C57/BL6J mice): 53%
increase of HMG CoA reductase activity (HMG CoA reductase; LDLRKO mice): 113%
enzymatic activity of HMG CoA reductase (in words) (HMG CoA reductase; LDLRKO mice, GH infusion): increased the activity to the same level as found in normal C57BL/6J animals; also recorded: normalized
reduction in C7αOH mRNA level (C7αOH mRNA; C57/BL6J mice): 50%
increase of C7αOH mRNA level (C7αOH mRNA; LDLRKO mice): 170%
reduction of plasma cholesterol (LDLRKO mice [1]; groups of 5): 10%
reduction of plasma triglycerides (LDLRKO mice [1]; groups of 5): approx. 20%
